In ChEMBL document CHEMBL5465560, “Selectivity Literature for EUbOPEN Chemogenomic Library” (2024):
Blank lines part the entries; values can stand above or below the compound they belong to.

How the values were obtained:
[1] = target: T1, Phosphatidylinositol 3-kinase C2 domain-containing subunit gamma (Homo sapiens) (UniProt O75747); experiment: Selectivity interaction (ProQinase) EUB0000171b PIK3C2G
T1 sequence (whole entry): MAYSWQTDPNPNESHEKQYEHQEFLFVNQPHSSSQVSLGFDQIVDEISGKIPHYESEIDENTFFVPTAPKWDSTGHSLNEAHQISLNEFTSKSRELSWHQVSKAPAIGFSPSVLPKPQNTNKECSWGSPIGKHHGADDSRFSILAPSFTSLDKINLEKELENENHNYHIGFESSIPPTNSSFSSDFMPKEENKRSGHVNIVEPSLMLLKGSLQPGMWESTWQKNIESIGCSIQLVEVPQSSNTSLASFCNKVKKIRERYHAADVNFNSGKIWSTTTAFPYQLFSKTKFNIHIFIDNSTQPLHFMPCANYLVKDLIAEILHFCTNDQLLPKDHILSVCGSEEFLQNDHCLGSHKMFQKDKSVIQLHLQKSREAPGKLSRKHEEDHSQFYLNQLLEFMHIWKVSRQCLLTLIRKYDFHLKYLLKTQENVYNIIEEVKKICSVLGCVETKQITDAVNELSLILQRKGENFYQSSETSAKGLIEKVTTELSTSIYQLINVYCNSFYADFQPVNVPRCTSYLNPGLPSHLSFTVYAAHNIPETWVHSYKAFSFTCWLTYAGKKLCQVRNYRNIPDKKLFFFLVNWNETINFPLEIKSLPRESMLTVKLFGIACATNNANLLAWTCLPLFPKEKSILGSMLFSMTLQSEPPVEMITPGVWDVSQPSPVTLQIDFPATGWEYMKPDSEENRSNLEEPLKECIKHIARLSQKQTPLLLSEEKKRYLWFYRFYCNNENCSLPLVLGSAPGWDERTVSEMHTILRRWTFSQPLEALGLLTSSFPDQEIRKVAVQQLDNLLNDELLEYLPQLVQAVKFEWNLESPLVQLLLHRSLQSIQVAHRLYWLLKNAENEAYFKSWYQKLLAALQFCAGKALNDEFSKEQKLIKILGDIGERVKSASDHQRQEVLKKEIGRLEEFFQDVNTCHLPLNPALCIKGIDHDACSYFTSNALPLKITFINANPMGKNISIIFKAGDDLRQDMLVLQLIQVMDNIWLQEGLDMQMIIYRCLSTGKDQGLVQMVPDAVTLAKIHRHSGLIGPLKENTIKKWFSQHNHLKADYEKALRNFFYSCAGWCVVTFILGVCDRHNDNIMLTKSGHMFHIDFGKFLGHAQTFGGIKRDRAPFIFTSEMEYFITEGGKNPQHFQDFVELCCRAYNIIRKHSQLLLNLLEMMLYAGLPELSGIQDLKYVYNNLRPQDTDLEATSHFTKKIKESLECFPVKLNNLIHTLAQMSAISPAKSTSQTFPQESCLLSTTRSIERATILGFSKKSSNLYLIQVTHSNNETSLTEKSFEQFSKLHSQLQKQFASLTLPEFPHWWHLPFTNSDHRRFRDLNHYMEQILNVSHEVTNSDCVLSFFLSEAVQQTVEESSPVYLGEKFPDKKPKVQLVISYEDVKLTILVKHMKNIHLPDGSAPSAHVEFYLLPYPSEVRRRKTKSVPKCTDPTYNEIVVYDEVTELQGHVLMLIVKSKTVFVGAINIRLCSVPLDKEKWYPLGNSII

[2] = target: T2, Serine/threonine-protein kinase LATS1 (Homo sapiens) (UniProt O95835); experiment: Selectivity interaction (LanthaScreen Eu Kinase Binding Assay) EUB0001632a LATS1; details: at 10 µM
T2 sequence (whole entry): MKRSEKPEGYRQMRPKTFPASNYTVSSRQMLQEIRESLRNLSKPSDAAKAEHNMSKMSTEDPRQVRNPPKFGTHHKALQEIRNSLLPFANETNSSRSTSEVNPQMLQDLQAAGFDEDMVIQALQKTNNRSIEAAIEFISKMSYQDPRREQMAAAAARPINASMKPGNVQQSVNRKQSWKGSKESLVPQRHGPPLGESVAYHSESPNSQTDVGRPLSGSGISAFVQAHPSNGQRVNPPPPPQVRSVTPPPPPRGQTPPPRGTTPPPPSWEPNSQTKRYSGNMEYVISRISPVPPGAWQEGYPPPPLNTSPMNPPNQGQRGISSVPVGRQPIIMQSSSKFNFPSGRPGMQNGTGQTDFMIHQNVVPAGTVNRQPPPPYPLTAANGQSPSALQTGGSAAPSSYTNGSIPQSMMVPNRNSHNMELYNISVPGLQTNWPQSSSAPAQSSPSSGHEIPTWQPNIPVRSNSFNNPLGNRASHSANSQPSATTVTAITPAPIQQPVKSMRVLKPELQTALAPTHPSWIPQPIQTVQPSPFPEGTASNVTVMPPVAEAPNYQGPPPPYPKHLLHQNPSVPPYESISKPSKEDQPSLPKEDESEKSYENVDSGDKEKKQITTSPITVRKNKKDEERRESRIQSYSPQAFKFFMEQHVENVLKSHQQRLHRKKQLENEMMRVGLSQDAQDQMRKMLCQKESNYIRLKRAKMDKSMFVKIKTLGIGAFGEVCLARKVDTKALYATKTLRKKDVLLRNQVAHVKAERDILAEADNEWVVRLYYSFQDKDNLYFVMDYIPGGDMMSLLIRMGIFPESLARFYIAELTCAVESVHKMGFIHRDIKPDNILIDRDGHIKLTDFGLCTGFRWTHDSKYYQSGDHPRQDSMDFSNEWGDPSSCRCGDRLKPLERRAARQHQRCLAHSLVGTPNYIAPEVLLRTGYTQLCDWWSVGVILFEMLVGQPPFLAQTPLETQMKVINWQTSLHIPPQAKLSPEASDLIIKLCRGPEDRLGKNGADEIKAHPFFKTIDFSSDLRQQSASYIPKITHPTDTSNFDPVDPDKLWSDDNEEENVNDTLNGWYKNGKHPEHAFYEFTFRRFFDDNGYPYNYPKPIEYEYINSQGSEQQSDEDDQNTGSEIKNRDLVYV

[3] = target: Leukocyte tyrosine kinase receptor (Homo sapiens, UniProt P29376); experiment: Selectivity interaction (KinomeScan (DiscoverX)) EUB0000695a LTK; details: at 100 nM
Sequence of Leukocyte tyrosine kinase receptor (P29376 whole entry): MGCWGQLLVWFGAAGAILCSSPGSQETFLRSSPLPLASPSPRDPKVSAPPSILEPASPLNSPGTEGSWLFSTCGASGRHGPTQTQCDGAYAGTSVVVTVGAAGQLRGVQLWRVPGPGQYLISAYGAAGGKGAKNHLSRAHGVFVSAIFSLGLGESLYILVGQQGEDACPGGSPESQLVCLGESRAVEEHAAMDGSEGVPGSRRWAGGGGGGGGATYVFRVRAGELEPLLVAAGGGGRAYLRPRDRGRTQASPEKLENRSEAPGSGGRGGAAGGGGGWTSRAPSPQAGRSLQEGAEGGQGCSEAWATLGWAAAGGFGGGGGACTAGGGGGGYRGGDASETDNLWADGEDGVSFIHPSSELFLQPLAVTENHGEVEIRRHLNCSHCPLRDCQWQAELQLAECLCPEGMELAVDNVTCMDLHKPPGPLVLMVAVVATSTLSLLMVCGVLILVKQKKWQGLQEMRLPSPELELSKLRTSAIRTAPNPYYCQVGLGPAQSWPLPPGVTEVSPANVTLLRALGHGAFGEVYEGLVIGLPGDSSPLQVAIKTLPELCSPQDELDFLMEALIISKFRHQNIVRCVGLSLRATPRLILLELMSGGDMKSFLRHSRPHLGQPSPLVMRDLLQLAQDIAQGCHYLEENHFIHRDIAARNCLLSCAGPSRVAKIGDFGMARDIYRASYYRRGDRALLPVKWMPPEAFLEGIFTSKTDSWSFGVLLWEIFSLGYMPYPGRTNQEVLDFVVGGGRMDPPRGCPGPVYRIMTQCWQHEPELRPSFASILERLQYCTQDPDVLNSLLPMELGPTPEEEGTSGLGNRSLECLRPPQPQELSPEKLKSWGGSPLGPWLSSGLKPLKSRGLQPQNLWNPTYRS

- % of control ([1]; at 1 µM): 129%
- % of control ([1]; at 5 µM): 108%
SMILES: C=CC(=O)Nc1cccc(C(=O)Nc2ccc(Nc3cc(-c4[nH]c(SC)nc4C)ccn3)cc2)c1

- % of inhibition [2]: -63.1%
SMILES: Cn1cc(-n2cnc3c(NCc4nc5cc(Cl)c(Cl)cc5[nH]4)nc(N4CCOCC4)nc32)cn1

SMILES: Cc1cc(F)c(C(=O)Nc2cccc(-c3nncn3C(C)C)n2)cc1-n1cnc(C2CC2)c1
- % of control [3]: 93%
